The values that follow come from patent US11312719B2, “9-substituted amino triazolo quinazoline derivatives as adenosine receptor antagonists, pharmaceutical compositions and their use” (Merck Sharp & Dohme Corp., priority 2018, dated 2022).

In assay [1] the target is human A2a adenosine receptor (Homo sapiens (Human), UniProt P29274). Briefly: A2a receptor affinity radioligand binding assay ([3H] SCH58261). The conditions noted are these: for IC50: membranes from HEK293 or CHO cells expressing human A2a receptor. A digest of the protocol:
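Membranes from HEK293 or CHO cells expressing human A2a were preincubated 15–30 min at room temperature with compound, then incubated 60 min at room temperature with [3H]SCH58261 (diluted to 4 nM) in 50 mM Tris pH 7.4, 10 mM MgCl2, 0.005% Tween20. Bound radioactivity was collected by filtration; nonspecific binding defined with 1 μM ZM241385; IC50 from 4-parameter logistic fit.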

The target in assay [2] is human A2b adenosine receptor (Homo sapiens (Human), UniProt P29275). Briefly: A2b radioligand filtration binding assay. To be noted: membranes from HEK293 cells expressing human A2b receptor. The method, boiled down:
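Membranes from HEK293 cells expressing human A2b receptor preincubated with compound 15 to 30 min at room temperature, then tritiated proprietary A2b antagonist (diluted to 14 nM before addition) added in PBS pH 7.4 for 60 min at room temperature. Bound radioactivity by filtration and scintillation; non-specific binding with 20 μM NECA; IC50 by 4-parameter logistic fit.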

The structures appear in SMILES notation.

Chain of human A2a adenosine receptor (P29274 whole entry): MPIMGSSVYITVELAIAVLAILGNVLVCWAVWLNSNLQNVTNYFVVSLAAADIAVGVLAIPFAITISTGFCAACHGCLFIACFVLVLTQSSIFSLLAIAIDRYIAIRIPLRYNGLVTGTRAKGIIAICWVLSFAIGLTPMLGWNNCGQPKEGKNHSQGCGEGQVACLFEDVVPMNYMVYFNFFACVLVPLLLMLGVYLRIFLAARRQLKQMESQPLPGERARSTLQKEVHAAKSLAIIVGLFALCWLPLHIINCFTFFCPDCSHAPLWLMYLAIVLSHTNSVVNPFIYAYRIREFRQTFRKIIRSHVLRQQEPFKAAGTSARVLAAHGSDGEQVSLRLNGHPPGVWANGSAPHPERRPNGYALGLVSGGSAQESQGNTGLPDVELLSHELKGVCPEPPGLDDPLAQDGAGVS
Chain of human A2b adenosine receptor (P29275 whole entry): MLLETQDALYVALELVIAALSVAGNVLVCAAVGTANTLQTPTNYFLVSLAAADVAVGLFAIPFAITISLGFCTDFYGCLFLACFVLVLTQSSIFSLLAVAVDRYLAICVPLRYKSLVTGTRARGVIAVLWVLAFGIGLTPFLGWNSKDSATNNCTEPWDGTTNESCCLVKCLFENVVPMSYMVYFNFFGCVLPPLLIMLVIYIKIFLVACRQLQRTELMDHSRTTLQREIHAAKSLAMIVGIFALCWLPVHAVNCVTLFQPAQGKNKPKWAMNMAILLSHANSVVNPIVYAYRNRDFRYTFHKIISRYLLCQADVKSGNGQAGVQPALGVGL

As a reminder, the IC50 is the concentration that inhibits the measured activity by half. Read a low IC50 as inhibition by little substance. Take `COc1cc(F)cc2c1nc(N)n1nc([C@@H]3CCCN(c4cn(C(C)C(C)(C)O)nc4C)C3)nc21` (single isomer, unassigned) [Example 86, (S or R)-3-(4-((R)-3-(5-amino-9-fluoro-7-methoxy-[1,2,4]triazolo[1,5-c]quinazolin-2-yl)piperidin-1-yl)-3-methyl-1H-pyrazol-1-yl)-2-methylbutan-2-ol]: the IC50 in assay [1] worked out at 0.3 nM; in assay [2], 165 nM.
Turning to `COc1cc(F)cc2c1nc(N)n1nc([C@@H]3CCCN(c4cn(C(C)C(C)(C)O)nc4C)C3)nc21` (single isomer, unassigned) [Example 87, (R or S)-3-(4-((R)-3-(5-amino-9-fluoro-7-methoxy-[1,2,4]triazolo[1,5-c]quinazolin-2-yl)piperidin-1-yl)-3-methyl-1H-pyrazol-1-yl)-2-methylbutan-2-ol], the IC50 is 0.4 nM in assay [1] and 134 nM in assay [2].
Take `COc1cc2nc(N)n3nc(C4CCC(C)N(c5cnn(C6CCCC6O)c5)C4)nc3c2cc1F` (single isomer, unassigned) [Example 88, (1R or 1S,2R or 2S)-2-(4-((2S,5R or 2R,5S)-5-(5-amino-9-fluoro-8-methoxy-[1,2,4]triazolo[1,5-c]quinazolin-2-yl)-2-methylpiperidin-1-yl)-1H-pyrazol-1-yl)cyclopentan-1-ol]: the IC50 in assay [1] worked out at 0.1 nM; in assay [2], 1.8 nM.
The corresponding values for `COc1cc2nc(N)n3nc(C4CCC(C)N(c5cnn(C6CCCC6O)c5)C4)nc3c2cc1F` (single isomer, unassigned) [Example 89, (1S or 1R,2S or 2R)-2-(4-((2S,5R or 2R,5S)-5-(5-amino-9-fluoro-8-methoxy-[1,2,4]triazolo[1,5-c]quinazolin-2-yl)-2-methylpiperidin-1-yl)-1H-pyrazol-1-yl)cyclopentan-1-ol] are 0.2 nM and 3.4 nM.
As to `COc1cc2nc(N)n3nc([C@@H]4C[C@H](C)CN(c5cnn(CC(C)(C)O)c5)C4)nc3c2cc1F` (single isomer, unassigned) [Example 90, 1-(4-((3R,5S or 3S,5R)-3-(5-amino-9-fluoro-8-methoxy-[1,2,4]triazolo[1,5-c]quinazolin-2-yl)-5-methylpiperidin-1-yl)-1H-pyrazol-1-yl)-2-methylpropan-2-ol], the IC50 in assay [1] was found to be 1.2 nM; in assay [2] it was 29 nM.
For the compound `COc1cc2nc(N)n3nc([C@H]4C[C@@H](C)CN(c5cnn(CC(C)(C)O)c5)C4)nc3c2cc1F` (single isomer, unassigned) [Example 91, 1-(4-((3S,5R or 3R,5S)-3-(5-amino-9-fluoro-8-methoxy-[1,2,4]triazolo[1,5-c]quinazolin-2-yl)-5-methylpiperidin-1-yl)-1H-pyrazol-1-yl)-2-methylpropan-2-ol], the IC50 in assay [1] was found to be 44.7 nM; in assay [2] it was 4620 nM.
Turning to `COc1cc2nc(N)n3nc([C@@H]4C[C@@H](C)CN(c5cnn(CC(C)(C)O)c5)C4)nc3c2cc1F` (single isomer, unassigned) [Example 92, rac-1-(4-((3R,5R or 3S,5S)-3-(5-amino-9-fluoro-8-methoxy-[1,2,4]triazolo[1,5-c]quinazolin-2-yl)-5-methylpiperidin-1-yl)-1H-pyrazol-1-yl)-2-methylpropan-2-ol], the IC50 in assay [1] turned out to be 10.9 nM; in assay [2] it was 602 nM.
In the case of `COc1cc2nc(N)n3nc([C@@H]4CCCN(c5cnn(CCCC(C)O)c5)C4)nc3c2cc1F` (single isomer, unassigned) [Example 94, (S or R)-5-(4-((R)-3-(5-amino-9-fluoro-8-methoxy-[1,2,4]triazolo[1,5-c]quinazolin-2-yl)piperidin-1-yl)-1H-pyrazol-1-yl)pentan-2-ol], the IC50 worked out at 7.8 nM in assay [1] and 752 nM in assay [2].
With `COc1cc2nc(N)n3nc([C@@H]4CCCN(c5cnn(CCCC(C)O)c5)C4)nc3c2cc1F` (single isomer, unassigned) [Example 95, (R or S)-5-(4-((R)-3-(5-amino-9-fluoro-8-methoxy-[1,2,4]triazolo[1,5-c]quinazolin-2-yl)piperidin-1-yl)-1H-pyrazol-1-yl)pentan-2-ol], the values for the IC50 in assay [1] and in assay [2] were 205 nM and 5040 nM, respectively.
As to `COc1cc2nc(N)n3nc([C@@H]4CC[C@H](C)N(c5cnn(C6CCC(C)(O)CC6)c5)C4)nc3c2cc1F` (single isomer, unassigned) [Example 96, rac-(1r,4s or 1r,4r)-4-(4-((2S,5R or 2R,5S)-5-(5-amino-9-fluoro-8-methoxy-[1,2,4]triazolo[1,5-c]quinazolin-2-yl)-2-methylpiperidin-1-yl)-1H-pyrazol-1-yl)-1-methylcyclohexan-1-ol], the IC50 in assay [1] is 0.7 nM; in assay [2], 24.6 nM.
With `COc1cc2nc(N)n3nc([C@@H]4CC[C@H](C)N(c5cnn(C6CCC(C)(O)CC6)c5)C4)nc3c2cc1F` (single isomer, unassigned) [Example 97, rac-(1r,4r or 1r,4s)-4-(4-((2S,5R or 2R,5S)-5-(5-amino-9-fluoro-8-methoxy-[1,2,4]triazolo[1,5-c]quinazolin-2-yl)-2-methylpiperidin-1-yl)-1H-pyrazol-1-yl)-1-methylcyclohexan-1-ol], the IC50 in assay [1] came out at 0.6 nM; in assay [2], 33.3 nM.
As to `COc1cc2nc(N)n3nc([C@@H]4CCCN(c5cnn([C@H]6CC[C@]6(C)O)c5)C4)nc3c2cc1F` (single isomer, unassigned) [Example 98, (1S or 1R,2S or 2R)-2-(4-((R)-3-(5-amino-9-fluoro-8-methoxy-[1,2,4]triazolo[1,5-c]quinazolin-2-yl)piperidin-1-yl)-1H-pyrazol-1-yl)-1-methylcyclobutan-1-ol], the IC50 is 0.9 nM in assay [1] and 116 nM in assay [2].
In the case of `COc1cc2nc(N)n3nc([C@@H]4CCCN(c5cnn([C@@H]6CC[C@@]6(C)O)c5)C4)nc3c2cc1F` (single isomer, unassigned) [Example 99, (1R or 1S,2R or 2S)-2-(4-((R)-3-(5-amino-9-fluoro-8-methoxy-[1,2,4]triazolo[1,5-c]quinazolin-2-yl)piperidin-1-yl)-1H-pyrazol-1-yl)-1-methylcyclobutan-1-ol], the IC50 is 4.4 nM in assay [1] and 231 nM in assay [2].
Take `Cn1cc(N2CCCC(c3nc4c5cc(F)c(F)cc5nc(N)n4n3)C2)cn1` (single isomer, unassigned) [Example 101, (R or S)-8,9-difluoro-2-(1-(1-methyl-1H-pyrazol-4-yl)piperidin-3-yl)-[1,2,4]triazolo[1,5-c]quinazolin-5-amine]: the IC50 worked out at 32.7 nM in assay [1] and 390 nM in assay [2].
For `Cn1cc(N2CCCC(c3nc4c5cc(F)ccc5nc(N)n4n3)C2)cn1` (single isomer, unassigned) [Example 102, (R or S)-9-fluoro-2-(1-(1-methyl-1H-pyrazol-4-yl)piperidin-3-yl)-[1,2,4]triazolo[1,5-c]quinazolin-5-amine], the results for the 50% inhibitory concentration (IC50) in assay [1] and in assay [2] were 104 nM and 539 nM, respectively.
The corresponding values for `Cn1cc(N2CCCC(c3nc4c5cc(F)cc(F)c5nc(N)n4n3)C2)cn1` (single isomer, unassigned) [Example 103, (R or S)-7,9-difluoro-2-(1-(1-methyl-1H-pyrazol-4-yl)piperidin-3-yl)-[1,2,4]triazolo[1,5-c]quinazolin-5-amine] are 0.5 nM and 137 nM.
In the case of `COc1cc(Cl)cc2c1nc(N)n1nc(C3CCCN(c4cnn(C)c4)C3)nc21` (single isomer, unassigned) [Example 104, (R or S)-9-chloro-7-methoxy-2-(1-(1-methyl-1H-pyrazol-4-yl)piperidin-3-yl)-[1,2,4]triazolo[1,5-c]quinazolin-5-amine], the figures for the IC50 in assay [1] and in assay [2] were 17.7 nM and 766 nM, respectively.
Take `Cc1cc(Cl)cc2c1nc(N)n1nc(C3CCCN(c4cnn(C)c4)C3)nc21` (single isomer, unassigned) [Example 105, (R or S)-9-chloro-7-methyl-2-(1-(1-methyl-1H-pyrazol-4-yl)piperidin-3-yl)-[1,2,4]triazolo[1,5-c]quinazolin-5-amine]: the figures for the IC50 in assay [1] and in assay [2] were 329 nM and 743 nM, respectively.
Turning to `Cn1cc(N2CCCC(c3nc4c5cc(Cl)ccc5nc(N)n4n3)C2)cn1` (single isomer, unassigned) [Example 106, (R or S)-9-chloro-2-(1-(1-methyl-1H-pyrazol-4-yl)piperidin-3-yl)-[1,2,4]triazolo[1,5-c]quinazolin-5-amine], the IC50 in assay [1] amounted to 316 nM; in assay [2] it was 430 nM.
Turning to `Cn1cc(N2CCCC(c3nc4c5c(F)c(F)ccc5nc(N)n4n3)C2)cn1` (single isomer, unassigned) [Example 107, (R or S)-9,10-difluoro-2-(1-(1-methyl-1H-pyrazol-4-yl)piperidin-3-yl)-[1,2,4]triazolo[1,5-c]quinazolin-5-amine], the IC50 in assay [1] is 127 nM; in assay [2] it was 1520 nM.
For `COc1ccc2nc(N)n3nc(C4CCCN(c5cnn(C)c5)C4)nc3c2c1` (single isomer, unassigned) [Example 108, (R or S)-9-methoxy-2-(1-(1-methyl-1H-pyrazol-4-yl)piperidin-3-yl)-[1,2,4]triazolo[1,5-c]quinazolin-5-amine], the “A2A binding % Inh. @ 1000 nM” value in assay [1] (@ 1000 nM) is 36% Inh. This compound displayed an IC50 in assay [2] of 8470 nM.
